Measurements reported in patent US7700122B1, “Topical compositions comprising an opioid analgesic and an NMDA antagonist” (Memorial Sloan-Kettering Cancer Center, priority 1998, dated 2010).
Entries after “also recorded” stand apart in the source; their conditions may differ. Where a name gives a salt, the structure may show the parent alone.

How the values were obtained:
CD-1 mice [1] = test: Effects of opioid antagonists on topical mu analgesia (tailflick); type: in vivo; settings: for effect of 3-methoxynaltrexone on topical M6G response: 0.25 mg/kg s.c. 20 min prior, M6G 20 mM; for effect of naloxone on topical opioid analgesic responses: naloxone 1 mg/kg s.c. 20 min prior, M6G 20 mM topical 1 min
Protocol: (§1) Systemic drugs were given subcutaneously (s.c.) in the midscapular region of the back. Intracerebroventricularly (i.c.v.) and intrathecal injections were performed under light halothane anesthesia 30 and 15 min before testing, respectively, as previously reported (Kolesnikov et al, 1996). The i.c.v. injections were administered-2 mm caudal and 2 mm lateral to the bregma at a depth of 3 mm, whereas intrathecal injections were made by lumbar puncture. Drugs were given topically on the tail by immersion of the tail in dimethylsulfoxide (DMSO) solutions containing the indicated drugs. The distal portion of the tail (3 cm) was immersed in DMSO solution for 1 min. Tailflick latencies then were determined on the region of the tail immersed in the drug, unless otherwise stated. To ensure a local effect, testing was also done with a more proximal segment of tail not exposed to the drug solution.
(§2) Analgesia was assessed with the tail-flick assay, as previously reported (Kolesnikov et al., 1996). The tail was exposed to a focused beam of light and the latency of exposure determined. […] A maximum cutoff latency of 10 sec was used to minimize tissue damage in analgesic animals. Testing was performed 30 min after systemic administration, 15 min after either i.c.v or i.t. injections or immediately after termination of topical administration into the tail. Antinociception, or analgesia, was defined quantally as a tailflick latency for an individual mouse which was at least twice its baseline latency. Group comparisons were performed using the Fisher exact test. ED50 values were determined using the Bliss program, as previously reported (Pick et al., 1993). To ensure a local action, in all studies we examined a region of the tail which was immersed in DMSO as well as a more proximal segment which was not exposed.

[2] = for Radioactivity, Tail Unexposed: unexposed tail less than 1 cm from exposed region
CD-1 mice [3] = test: Effect of NMDA antagonists (MK801, ketamine) on topical morphine tolerance (tailflick); type: in vivo
Protocol: as §1, §2

CD-1 mice [4] = test: Tailflick assay, topical opioid analgesia (tail immersion in DMSO solution); type: in vivo; settings: for analgesic response in proximal tail not exposed to the opioid solution: mouse, in vivo; for Relative potency: ratio of topical ED50 against morphine; for ED50 (95% CL): topical for 1 min, tailflick assay, CD-1 mice; for analgesic response: morphine solution 7.5 mM
CD-1 mice [5] = test: Tolerance to systemic and topical morphine and cross tolerance (tailflick); type: in vivo; settings: for response to topical opioid after chronic systemic morphine (cross tolerance): morphine 5 mg/kg s.c. daily five days, tested day six, 1 min local exposure (morphine 15 mM, M6G 20 mM, DAMGO 2 mM)
Protocol: as §1, §2

CD-1 mice [6] = settings: subcutaneous injection in the tail, doses of 10 or 30 μg
[7] = central actions; cited from earlier work
CD-1 mice [8] = test: Interactions between topical and systemic or spinal morphine (tailflick); type: in vivo; settings: for ED50: Mus musculus, topical, 0.5 h
Protocol: Testing was performed 10 min following drug administration. […] Testing was performed 30 min following drug administration.
as §1, §2

[9] = tail immersed 3 min in 100 μCi/ml in DMSO, sampled within 5 min
[10] = morphine 15 mM daily, after three days

Molecule: COc1ccc2c3c1O[C@H]1C(=O)CC[C@@]4(O)[C@@H](C2)N(CC2CC2)CC[C@]314 [3-MeONtx, 3-methoxynaltrexone]
- effect of 3-methoxynaltrexone on topical M6G response (CD-1 mice [1]): significantly lowered the response only for M6G
- effect of 3-methoxynaltrexone on topical M6G response (CD-1 mice [1]; listed as 3MeONtx): significantly lowered the M6G response
- effect of 3-methoxynaltrexone on topical morphine or DAMGO analgesia (CD-1 mice [1]; 0.25 mg/kg s.c., morphine 15 mM, DAMGO 2 mM): inactive

Molecule: [^125I]DAMGO [^125I-DAMGO]
- Radioactivity, Blood [2, 9]: <50 cpm/g
- Radioactivity, Brain [2, 9]: <50 cpm/g
- Radioactivity, Spinal cord [2, 9]: <50 cpm/g
- Radioactivity, Tail Exposed [2, 9]: 45,280 ± 2,637 cpm/g
- Radioactivity, Tail Unexposed [2]: 157 ± 51 cpm/g

Molecule: CNC1(c2ccccc2Cl)CCCCC1=O (stereo not shown) [ketamine, 2-(2-chlorophenyl)-2-(methylamino) cyclohexanone]
- topical morphine tolerance with intrathecal ketamine (CD-1 mice [3]; data not shown): ineffective
- topical morphine tolerance with systemic ketamine (CD-1 mice [3]; data not shown): prevented the development of tolerance to topical morphine
- reversal of established topical morphine tolerance by topical ketamine 36 mM (CD-1 mice [3]; ketamine from day 3 through day 6): completely restored morphine analgesia
- topical morphine tolerance with topical ketamine 3.6 mM (CD-1 mice [3]; morphine 15 mM once daily): significantly lessened the loss of morphine analgesic response after three days; also recorded: delayed the appearance of tolerance
- topical morphine tolerance with topical ketamine 36 mM (CD-1 mice [3]; morphine 15 mM once daily): prevented tolerance up to six days; also recorded: effectively blocked tolerance
- analgesia of ketamine alone (CD-1 mice [3]; topical 36 mM): did not produce significant analgesia; also recorded: no appreciable effect

Molecule: C[C@@H](NC(=O)[C@@H](N)Cc1ccc(O)cc1)C(=O)NCC(=O)N(C)[C@@H](Cc1ccccc1)C(=O)NCCO [DAMGO, [D-Ala^2,MePhe^4,Gly(ol)^5]enkephalin]
- analgesic response in proximal tail not exposed to the opioid solution (CD-1 mice [4]): no analgesic response
- Relative potency (CD-1 mice [4]): 5
- ED50 (95% CL) (CD-1 mice [4]): 1.6 mM (1-2.5)
- duration of action (CD-1 mice [4]; topical, FIG. 1a): lasting almost an hour
- potency relative to morphine (CD-1 mice [4]; topical, fixed exposure time): over 5 fold
- response to topical opioid after chronic systemic morphine (cross tolerance) (CD-1 mice [5]): significantly decreased

Molecule: CN1CC[C@]23c4c5ccc(O)c4O[C@H]2[C@@H](O[C@@H]2O[C@H](C(=O)O)[C@@H](O)[C@H](O)[C@H]2O)C=C[C@H]3[C@H]1C5 [M6G, morphine-6β-glucuronide]
- analgesic response in proximal tail not exposed to the opioid solution (CD-1 mice [4]): did not display analgesia
- Relative potency (CD-1 mice [4]): 0.9
- ED50 (95% CL) (CD-1 mice [4]): 9.3 mM (7-14)
- topical analgesic response (CD-1 mice [4]; topical paradigm, tailflick): full analgesic response
- response to topical opioid after chronic systemic morphine (cross tolerance) (CD-1 mice [5]): no change
- ceiling effect of analgesia (CD-1 mice [6]): 30%
- central activity relative to morphine [7]: approximately 100 fold

Molecule: CN1CC[C@]23c4c5ccc(O)c4O[C@H]2[C@@H](O)C=C[C@H]3[C@H]1C5 [Morphine]
- analgesic response (CD-1 mice [4]; exposure 30 seconds): 25%
- analgesic response (CD-1 mice [4]; exposure 2 min): 80%
- analgesic response (CD-1 mice [4]; exposure one minute): 50%
- analgesic response in proximal tail not exposed to the opioid solution (CD-1 mice [4]): no analgesic response
- duration of the response (CD-1 mice [4]; topical, FIG. 1a): less than 30 min
- onset of analgesia after removal of the tail from the opioid solution (CD-1 mice [4]; topical, shortest time tested): detectable within one minute
- response to spinal morphine alone (CD-1 mice [8]; 100 ng, i.t.): no observable action
- response to systemic morphine alone (CD-1 mice [8]; 1 mg/kg, s.c.): 10%
- potentiation of analgesic potency of systemic morphine by topical morphine (CD-1 mice [8]; 30 min): ~7 fold
- ED50 (CD-1 mice [8]; read-out: ED50 value, Systemic + topical): 0.66 mg/kg
- ED50 (CD-1 mice [8]; read-out: ED50 value, Systemic alone): 4.3 mg/kg
- ED50 value, Spinal alone (CD-1 mice [8]; intrathecal morphine alone, tested 15 min): 550 ng (386-822)
- ED50 value, Spinal + topical (CD-1 mice [8]; intrathecal morphine with fixed topical morphine 15 mM, tested 15 min): 46 ng (21-84)
- enhancement of potency of intrathecal morphine by topical morphine (CD-1 mice [8]; mouse, in vivo): ~12 fold
- response of topical plus spinal morphine versus sum of routes (CD-1 mice [8]; topical 15 mM 2 min + 100 ng i.t., 10 min): significantly more active than the sum of the two individual routes alone
- response of topical plus systemic morphine versus sum of routes (CD-1 mice [8]; topical 15 mM + 1 mg/kg s.c., 30 min): significantly greater than the sum of the two ones alone
- response to topical morphine alone at 1 min (CD-1 mice [8]; topical morphine 15 mM, 2 min exposure, 1 min after): 80%
- response to topical morphine alone at 10 min (CD-1 mice [8]; topical morphine 15 mM, 10 min after): 30%
- response to topical morphine alone at 30 min (CD-1 mice [8]; topical morphine 15 mM, 30 min after): no observable response; also recorded: No analgesia
- day 3 response, systemic versus topical group (CD-1 mice [5]; 5 mg/kg s.c. or topical 15 mM 1 min daily): significantly greater than the topical group
- ED50 (CD-1 mice [5]; Mus musculus, topical, read-out: ED50 (95% confidence limits), Systemic, Naive): 4.3 mg/kg
- ED50 (95% confidence limits), Topical, Tolerant (CD-1 mice [5]; after topical morphine 15 mM daily for two days): 78 mM (49, 123)
- response to topical opioid after chronic systemic morphine (cross tolerance) (CD-1 mice [5]): significantly decreased
- ED50 (95% confidence limits), Topical, Naive (CD-1 mice [5]; naive mice, topical morphine): 8.3 mM (4.1-10.2)
- response to daily topical morphine alone after three days (CD-1 mice [5]; topical 15 mM, 1 min, daily): lost and profound tolerance by the third day and complete loss analgesia by the third day

Molecule: C[C@]12N[C@H](Cc3ccccc31)c1ccccc12 [MK801, (5R,10S)— (+)-5-methyl-10,11-dihydro-5H-dibenzo[a,d]cyclohapten-5,10-immine hydrogen maleate]
- topical morphine response with intrathecal MK801 (CD-1 mice [3]; MK801 1 μg i.t., morphine 15 mM daily): lost and ineffective
- topical morphine response with systemic MK801 (tolerance prevention) (CD-1 mice [3]; MK801 0.1 mg/kg s.c., morphine 15 mM daily): remained essentially unchanged for five days
- reversal of established topical morphine tolerance by topical MK801 (CD-1 mice [3]; MK801 0.3 or 3 mM from fourth day): reversed the previously established tolerance
- topical morphine response with topical MK801 3 mM (tolerance prevention) (CD-1 mice [3]; morphine 15 mM 1 min daily): remained essentially unchanged for five days; also recorded: prevented the loss of responsiveness
- topical morphine response with topical MK801 0.15 mM (CD-1 mice [3]; [10]): intermediate response
- topical morphine response with topical MK801 0.3 mM (CD-1 mice [3]; [10]): prevented the loss of responsiveness; also recorded: effectively blocking tolerance

Molecule: [^125I]Morphine [^125I-Morphine]
- Radioactivity, Blood [2, 9]: 69 ± 18 cpm/g
- Radioactivity, Spinal cord [2, 9]: 71 ± 12 cpm/g
- Radioactivity, Tail Exposed [2, 9]: 38,460 ± 3,455 cpm/g
- Radioactivity, Tail Unexposed [2]: 234 ± 51 cpm/g

Molecule: C=CCN1CC[C@]23c4c5ccc(O)c4O[C@H]2C(=O)CC[C@@]3(O)[C@H]1C5 [naloxone]
- effect of naloxone on topical opioid analgesic responses (CD-1 mice [1]; morphine 15 mM, DAMGO 2 mM): easily reversed; also recorded: readily reversed
- effect of naloxone on topical opioid analgesic responses (CD-1 mice [1]; morphine 15 mM, DAMGO 2 mM, listed as Naloxone): significantly reduced the responses for all agonists
